Measurements as given in patent publication US20200095296A1, “USE OF PEPTIDES AS BIOMARKERS IN THE DIAGNOSIS, CONFIRMATION AND TREATMENT OF A NEUROLOGICAL DISORDER AND TCR AND/OR HLA IMMUNOPROFILING IN NEURODEGENERATIVE DISEASE” (THE TRUSTEES OF COLUMBIA UNIVERSITY IN THE CITY OF NEW YORK, priority 2017, published 2020).
Where two headings read alike, the source gives them in different places.

What was measured:
DRB3*01:01 = DRB3*01:01 (Homo sapiens, UniProt P01903+P79483); experiment: competition binding assay, purified HLA DRB3*01:01; settings: radiolabeled peptide competition, nM
DPB1*03:01 = target: T1, DPB1*03:01 (Homo sapiens, UniProt P04440+P20036, A65V/A84D/A85E/E86D/F38Y/G113D/G114E/G40L/I94L/L37V/M105V/M116V/P115A/R125K/T199I); experiment: competition binding assay, purified HLA DPB1*03:01
T1 sequence (P20036 29-260): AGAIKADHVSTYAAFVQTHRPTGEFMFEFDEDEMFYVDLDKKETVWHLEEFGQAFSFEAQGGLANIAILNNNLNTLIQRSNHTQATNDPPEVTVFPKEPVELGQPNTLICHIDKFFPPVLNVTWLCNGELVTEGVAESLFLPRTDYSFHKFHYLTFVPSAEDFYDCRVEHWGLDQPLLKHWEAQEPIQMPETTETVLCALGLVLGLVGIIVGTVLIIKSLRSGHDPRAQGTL
T1 sequence (P04440 30-258 L37V/F38Y/G40L/A65V/A84D/A85E/E86D/I94L/M105V/G113D/G114E/P115A/M116V/R125K/T199I): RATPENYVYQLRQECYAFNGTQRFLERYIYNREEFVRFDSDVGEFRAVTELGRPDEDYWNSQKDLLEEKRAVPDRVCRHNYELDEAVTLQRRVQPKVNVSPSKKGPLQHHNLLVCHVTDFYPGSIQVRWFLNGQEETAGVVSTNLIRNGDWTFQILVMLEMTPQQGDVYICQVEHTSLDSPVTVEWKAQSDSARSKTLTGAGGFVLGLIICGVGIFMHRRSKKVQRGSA

DRB1*09:01 = DRB1*09:01 (Homo sapiens, UniProt P01903+P01911, A100R/A103E/D57H/D86V/F55Y/F60I/F76Y/I96F/K127E/L162R/M171V/P40D/Q125H/Q99R/R33Q/R42F/S133A/S66N/T210M/V115G/W38K/Y107V/Y59G/Y89S); experiment: competition binding assay, purified HLA DRB1*09:01
DRB1*13:02 = DRB1*13:02 (Homo sapiens, UniProt P01903+P01911, A100E/A169T/K41T/L162R/M171V/P40S/Q125H/Q178H/Q39Y/Q99D/R42S/S66N/T262R/V115G/W38E/Y61H); experiment: competition binding assay, purified HLA DRB1*13:02
DRB1*04:01 = DRB1*04:01 (Homo sapiens, UniProt P01903+P01911, A100K/A169T/F76Y/I96L/K127E/L162R/M171V/N62H/P40V/Q125Y/R42H/S133A/S149N/S66Y/V115G/V209L/W38E); experiment: competition binding assay, purified HLA DRB1*04:01; settings: radiolabeled peptide competition, nM
DRB1*15:01 = DRB1*15:01 (Homo sapiens, UniProt P01903+P01911); experiment: competition binding assay, purified HLA DRB1*15:01
[1] = purified HLA, radiolabeled peptide competition, nM, read-out: binding to DRB1*09:01 (IC50)
[2] = purified HLA, radiolabeled peptide competition, nM, read-out: binding to DRB1*13:02 (IC50)

SMILES	IC50 (DRB3*01:01) [nM]	IC50 (DPB1*03:01) [nM]	IC50 (DRB1*09:01; [1]) [nM]	IC50 (DRB1*13:02; [2]) [nM]	IC50 (DRB1*04:01) [nM]	IC50 (DPB1*03:01; purified HLA, radiolabeled peptide competition, nM, read-out: binding to DPB1*03:01 (IC50)) [nM]	IC50 (DRB1*15:01; purified HLA, radiolabeled peptide competition, nM, read-out: binding to DRB1*15:01 (IC50)) [nM]	IC50 (DRB1*15:01) [nM]	IC50 (DRB1*09:01) [nM]	IC50 (DRB1*13:02) [nM]
CSCC[C@H](NC(=O)[C@@H](N)CCC(=O)O)C(=O)N1CCC[C@H]1C(=O)N[C@@H](COP(=O)(O)O)C(=O)N[C@@H](CCC(=O)O)C(=O)N[C@@H](CCC(=O)O)C(=O)NCC(=O)N[C@@H](Cc1ccc(O)cc1)C(=O)N[C@@H](CCC(N)=O)C(=O)N[C@@H](CC(=O)O)C(=O)N[C@@H](Cc1ccc(O)cc1)C(=O)N[C@@H](CCC(=O)O)C(=O)N1CCC[C@H]1C(=O)N[C@@H](CCC(=O)O)C(=O)N[C@@H](C)C(=O)O	> 10000	> 10000	> 10000	> 10000	4950	–	–	–	–	–
CSCC[C@H](NC(=O)[C@H](CCC(=O)O)NC(=O)[C@H](Cc1ccc(O)cc1)NC(=O)[C@H](C)NC(=O)[C@H](CCC(=O)O)NC(=O)[C@H](CC(N)=O)NC(=O)[C@@H](N)CC(=O)O)C(=O)N1CCC[C@H]1C(=O)N[C@@H](COP(=O)(O)O)C(=O)N[C@@H](CCC(=O)O)C(=O)N[C@@H](CCC(=O)O)C(=O)NCC(=O)N[C@@H](Cc1ccc(O)cc1)C(=O)N[C@@H](CCC(N)=O)C(=O)N[C@@H](CC(=O)O)C(=O)O	9180	–	> 10000	> 10000	9130	> 10000	> 10000	–	–	–
CSCC[C@H](NC(=O)[C@H](CCC(=O)O)NC(=O)[C@H](Cc1ccc(O)cc1)NC(=O)[C@H](C)NC(=O)[C@H](CCC(=O)O)NC(=O)[C@H](CC(N)=O)NC(=O)[C@@H](N)CC(=O)O)C(=O)N1CCC[C@H]1C(=O)N[C@@H](CO)C(=O)N[C@@H](CCC(=O)O)C(=O)N[C@@H](CCC(=O)O)C(=O)NCC(=O)N[C@@H](Cc1ccc(O)cc1)C(=O)N[C@@H](CCC(N)=O)C(=O)N[C@@H](CC(=O)O)C(=O)O	–	> 10000	–	–	–	–	–	> 10000	4600	> 10000
